Laboratory results published in EP4806443A1, “ANTICANCER AGENT KIT” (Nihon Trim Co., Ltd., priority 2023, dated 2025).

What was measured:
Type in all cases: cell-based, Human
Caco-2 cells = test: Cell growth inhibitory effect (Cell Counting Kit-8), Caco-2; conditions: doxorubicin 1, 2, or 4 µM in serum-free medium (autophagy activating conditions), 24 hours (FIG. 12)
Procedure: FIGS. 12 to 15 show the results.
In FIG. 12, DOX + serum free represents DMEM with no serum (serum-free medium) to which doxorubicin was added at a predetermined concentration (1, 2, or 4 µM), DOX represents serum-containing DMEM with doxorubicin added at a predetermined concentration, and DOX + Baf. represents a medium (Baf. A1-containing medium) containing 200 nM Bafilomycin A1 (Baf. A1) dissolved in serum-containing DMEM, to which doxorubicin was added at the predetermined concentration.
In FIG. 15, FW (Medium + Baf. A1) represents a medium (Baf. A1-containing filtered-water medium) containing 200 nM Baf.

[1] = test system: HeLa cells expressing a GFP-LC3-RFP-LC3ΔG probe; test: Autophagic activity based on GFP/RFP ratio (flow cytometry), HeLa
Procedure: Then, the cells were detached and suspended, and the fluorescence intensities of GFP and RFP were analyzed by flow cytometry. The autophagic activity was quantitatively analyzed by determining the GFP/RFP ratio.
A1-containing filtered-water medium) containing 200 nM Baf.
The GFP-LC3-RFP-LC3ΔG probe (or a GFP-LC3-RFP probe described later) is described in, for example, the following paper. The GFP-LC3-RFP-LC3ΔG probe (or GFP-LC3-RFP probe) is cleaved by ATG4, and the same number of GFP-LC3 and RFP-LC3ΔG (or RFP) are produced in the cytoplasm. GFP-LC3 is localized in the autophagosomes, and then quenched and degraded in the autolysosomes. RFP-LC3ΔG (or RFP) remains in the cytoplasm and serves as an internal control reflecting the amount of GFP-LC3. The GFP/RFP ratio is obtained by quantifying the cumulative amount of degradation of GFP-LC3 by autophagy. A decrease in the GFP/RFP ratio indicates autophagy activation. An increase in the GFP/RFP ratio indicates autophagy inhibition. […]
(§1) Then, the cells were detached and suspended in the same manner as described in the section (2-3), and the fluorescence intensities of GFP and RFP were analyzed by flow cytometry. The autophagic activity was quantitatively analyzed by determining the GFP/RFP ratio.

[2] = test system: HeLa cells in which ATG7 was knocked out (ATG7 KO); test: Apoptosis induction (Cell Death Detection […]), HeLa ATG7 KO; conditions: doxorubicin 1 or 2 µM, 24 hours; ATG7 KO compared with ATG7 WT (FIG. 7)
Procedure: Apoptosis induction was assessed using Cell Death Detection [sequence] (Roche Diagnostics, Basel, Switzerland) according to the manual. HeLa cells (ATG7 WT) or HeLa cells in which ATG7 was knocked out (ATG7 KO) were seeded into a 12-well plate at 1.0 × 10^5 cells/well and cultured (precultured) in DMEM under the conditions of 37°C and 5% CO2 for 24 hours. After the preculture, the medium was exchanged with DMEM supplemented with an anticancer agent containing doxorubicin at a predetermined concentration (1 or 2 µM), and the cells were cultured for 24 hours. The cells were then lysed with a lysis buffer, and the lysate was added to each well of the ELISA plate, incubated with an immunological reagent buffer containing anti-histone biotin and anti-DNA POD for 2 hours, and washed with an incubation buffer. Then, the resultant was reacted with 100 µL of an ABTS substrate buffer, and the absorbance was measured at 405 nm and 490 nm.
Apoptosis induction was assessed using Cell Death Detection [sequence] (Roche Diagnostics, Basel, Switzerland) according to the manual. […] Then, the resultant was reacted with 100 µL of an ABTS substrate buffer, and the absorbance was measured at 405 nm and 490 nm.

[3] = test system: HeLa cells in which ATG7 (autophagy-related gene) was knocked out (ATG7 KO); test: Cell growth inhibitory effect (Cell Counting Kit-8), HeLa ATG7 KO; conditions: 24 hours
Procedure: The results are shown in FIGS. 8 (ATG7 WT) and 9 (ATG7 KO).
FIGS. 20 and 21 show the results.
In FIGS. 20 and 21, HW represents DMEM (produced hydrogen water medium) containing produced hydrogen water with a dissolved hydrogen concentration of 0 ppm to 4 ppm, and HW + DOX represents the DMEM (produced hydrogen water medium) to which 0.5 µM doxorubicin was added.
The results are shown in FIGS. 26 (ATG7 WT) and 27 (ATG7 KO).

[4] = test system: HCT116 cells expressing the GFP-LC3-RFP probe; test: Autophagic activity based on GFP/RFP ratio (flow cytometry), HCT116; conditions: fluorouracil 1 or 10 µM, 24 hours (FIG. 25)
Procedure: as §1

COc1cccc2c1C(=O)c1c(O)c3c(c(O)c1C2=O)C[C@@](O)(C(=O)CO)C[C@@H]3O[C@H]1C[C@H](N)[C@H](O)[C@H](C)O1 [doxorubicin]
cell growth inhibitory effect of doxorubicin (Caco-2 cells): rather reduced
GFP/RFP ratio ([1]; doxorubicin 1, 2, or 4 µM, 4 hours, a decrease indicates autophagy activation (FIG. 5)): decreased as the doxorubicin concentration increased
apoptosis induction [2]: enhanced
cell growth inhibitory effect ([3]; doxorubicin 1, 2, or 4 µM, ATG7 KO compared with ATG7 WT (FIG. 6)): enhanced

CC(=O)O[C@H]1C(=O)[C@@]2(C)[C@H]([C@H](OC(=O)c3ccccc3)[C@]3(O)C[C@H](OC(=O)[C@H](O)[C@@H](NC(=O)c4ccccc4)c4ccccc4)C(C)=C1C3(C)C)[C@]1(OC(C)=O)CO[C@@H]1C[C@@H]2O [paclitaxel]
GFP/RFP ratio ([1]; paclitaxel 1, 5, or 10 nM, 24 hours (FIG. 23)): decreased as the paclitaxel concentration increased
anticancer effect (cell growth inhibitory effect) ([3]; paclitaxel 1, 10, or 50 nM, ATG7 KO compared with ATG7 WT (FIG. 24)): enhanced

O=c1[nH]cc(F)c(=O)[nH]1 [fluorouracil]
GFP/RFP ratio [4]: decreased as the fluorouracil concentration increased
